This is an account of results in patent US9975903B2, “Condensed heterocyclic compound” (Takeda Pharmaceutical Company Limited, priority 2014, dated 2018).

SMILES strings stand for the structures. Where a name gives a salt, the structure may show the parent alone.

T1 sequence (P98073 whole entry): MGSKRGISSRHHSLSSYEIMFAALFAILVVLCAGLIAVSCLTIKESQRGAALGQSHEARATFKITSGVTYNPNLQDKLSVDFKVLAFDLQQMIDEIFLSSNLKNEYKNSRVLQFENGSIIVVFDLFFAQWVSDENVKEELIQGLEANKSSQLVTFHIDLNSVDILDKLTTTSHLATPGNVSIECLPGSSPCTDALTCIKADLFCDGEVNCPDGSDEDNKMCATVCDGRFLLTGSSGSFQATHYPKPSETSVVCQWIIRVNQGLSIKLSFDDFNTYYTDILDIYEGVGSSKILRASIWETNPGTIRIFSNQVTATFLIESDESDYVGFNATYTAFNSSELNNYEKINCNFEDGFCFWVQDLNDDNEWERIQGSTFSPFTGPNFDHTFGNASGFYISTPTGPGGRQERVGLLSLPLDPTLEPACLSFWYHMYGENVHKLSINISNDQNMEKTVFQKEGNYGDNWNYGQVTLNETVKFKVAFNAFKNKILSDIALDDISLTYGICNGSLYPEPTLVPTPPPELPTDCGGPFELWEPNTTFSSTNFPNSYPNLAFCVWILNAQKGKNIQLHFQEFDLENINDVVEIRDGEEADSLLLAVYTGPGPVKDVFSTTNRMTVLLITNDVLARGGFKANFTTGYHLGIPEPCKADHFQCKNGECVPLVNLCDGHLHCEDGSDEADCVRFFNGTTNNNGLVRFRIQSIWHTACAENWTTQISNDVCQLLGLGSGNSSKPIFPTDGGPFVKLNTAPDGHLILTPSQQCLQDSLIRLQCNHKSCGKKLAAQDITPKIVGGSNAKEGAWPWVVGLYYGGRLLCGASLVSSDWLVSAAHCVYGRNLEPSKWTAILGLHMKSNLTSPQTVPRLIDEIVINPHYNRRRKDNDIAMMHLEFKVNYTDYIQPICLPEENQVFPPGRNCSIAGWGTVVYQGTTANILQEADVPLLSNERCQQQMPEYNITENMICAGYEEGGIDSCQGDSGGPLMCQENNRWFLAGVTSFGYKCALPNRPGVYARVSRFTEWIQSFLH

The first assay concerns the target T1, Human recombinant enteropeptidase (Homo sapiens, UniProt P98073).
T1 construct: purchased ITSI-Biosciences LLC #REN-260
Put plainly: Human enteropeptidase inhibitory activity (Test Example 1). The assay is classed as biochemical. Conditions: 3.3 μM test compound; inhibition rate from fluorescence intensity at 2 hours after the start of the reaction. The gist of the method: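 Recombinant human enteropeptidase in 50 mM Tricine pH 8.0, 0.01% Tween 20, 10 mM CaCl2, with a 5FAM/CPQ2-quenched peptide substrate (2.1 μM solution before mixing). Compound came from 1 mM DMSO stock diluted 100-fold in buffer. Fluorescence (ex 485/em 535 nm) at 2 h gave % inhibition versus no-compound and no-enzyme controls.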
Consider `N=C(N)Nc1ccc2c(c1)OCCCOc1cc(CCC(=O)N[C@@H](CC(=O)O)C(=O)O)ccc1OC2=O` [Example 51, N-(3-(3-carbamimidamido-15-oxo-7,8-dihydro-6H,15H-dibenzo[b,f][1,4,8]trioxacyclo-undecin-11-yl)propanoyl) aspartic acid], for which the “3.3 μM Inhibition” value came out at 101%.

Staying with this assay, now noted: 3.3 μM test compound; inhibition rate from fluorescence intensity at 2 hours after the start of the reaction; read-out: 3.3 μM Inhibition.
Turning to `N=C(N)Nc1ccc2c(c1)CCCOc1c(cccc1C(=O)N(CC(=O)O)[C@@H](Cc1ccc(OCCNCC(=O)O)cc1)C(=O)O)OC2=O` [Example 121, N-((10-Carbamimidamido-13-oxo-6,7,8,13-tetrahydrodibenzo[b,f][1,4]dioxecin-4-yl)carbonyl)-N-(carboxymethyl)-O-(2-((carboxymethyl)amino)ethyl)-L-tyrosine], the inhibition at 3.3 µM stood at 101%.

With `N=C(N)Nc1ccc2c(c1)CCCOc1c(cccc1C(=O)N(CCC(=O)O)CCC(=O)O)OC2=O` [Example 9, 3,3′-(((10-carbamimidamido-13-oxo-6,7,8,13-tetrahydro-dibenzo[b,f] [1,4]dioxecin-4-yl)carbonyl)imino) dipropanoic acid (non-preferred name)], the inhibition at 3.3 µM amounted to 101%.

In the case of `CN(C(=O)c1c(CCC(=O)O)ccc2c1OCCCc1cc(NC(=N)N)ccc1C(=O)O2)[C@@H](CC(=O)O)C(=O)O` [Example 118, N-((10-Carbamimidamido-3-(2-carboxyethyl)-13-oxo-6,7,8,13-tetrahydrodibenzo[b,f][1,4]dioxecin-4-yl)carbonyl)-N-methyl-L-aspartic acid], the inhibition at 3.3 µM was 101%. Regarding `N=C(N)Nc1ccc2c(c1)OCCOc1c(CCC(=O)N[C@@H](CC(=O)O)C(=O)O)cccc1OC2=O` [Example 52, N-(3-(3-Carbamimidamido-14-oxo-6,7-dihydro-14H-dibenzo[b,h][1,4,7]trioxecin-9-yl)propanoyl)aspartic acid trifluoroacetate], the inhibition at 3.3 µM worked out at 101%.

Regarding `N=C(N)Nc1ccc2c(c1)CCCOc1c(cccc1C(=O)N(CC(=O)O)CC(=O)N(CC(=O)O)Cc1ccccc1)OC2=O` [Example 140, N-((10-Carbamimidamido-13-oxo-6,7,8,13-tetrahydrodibenzo[b,f][1,4]dioxecin-4-yl)carbonyl)-N-(carboxymethyl)glycyl-N-benzylglycine], the inhibition at 3.3 µM turned out to be 100%. On the same count and under the same terms, the same measure for `N=C(N)Nc1ccc2c(c1)CCCOc1c(cccc1C(=O)N1CCC(C(=O)N[C@@H](CC(=O)O)C(=O)O)CC1)OC2=O` [Example 101, N-((1-((10-carbamimidamido-13-oxo-6,7,8,13-tetrahydro-dibenzo[b,f] [1,4]dioxecin-4-yl)carbonyl)-piperidin-4-yl)carbonyl)-L-aspartic acid]: 100%; for `N=C(N)Nc1ccc2c(c1)CCCOc1c(cccc1C(=O)N[C@@H](Cc1ccccc1)C(=O)O)OC2=O` [Example 87, N-((10-carbamimidamido-13-oxo-6,7,8,13-tetrahydro-dibenzo[b,f] [1,4]dioxecin-4-yl)carbonyl)-L-phenylalanine]: 101%. Turning to `N=C(N)Nc1ccc2c(c1)CCCCc1c(CC(=O)N[C@@H](CC(=O)O)C(=O)O)cccc1OC2=O` [Example 32, N-((3-carbamimidamido-14-oxo-5,7,8,14-tetrahydro-6H-dibenzo[b,h]oxecin-9-yl)acetyl)-L-aspartic acid], the inhibition at 3.3 µM stood at 71%. In the case of `N=C(N)Nc1ccc2c(c1)CCOc1c(cccc1C(=O)N[C@@H](CC(=O)O)C(=O)O)OC2=O` [Example 13, N-((9-Carbamimidamido-6-oxo-11,12-dihydro-6H-dibenzo[b,f][1,4]dioxonin-1-yl)carbonyl)-L-aspartic acid trifluoroacetate], the inhibition at 3.3 µM was found to be 101%. Same read-out and setting: next, `N=C(N)Nc1ccc2c(c1)CCCOc1c(cccc1C(=O)N(CC(=O)O)[C@@H](CC(=O)O)C(=O)O)OC2=O` [Example 104, N-((10-Carbamimidamido-13-oxo-6,7,8,13-tetrahydrodibenzo[b,f][1,4]dioxecin-4-yl)carbonyl)-N-(carboxymethyl)-L-aspartic acid]: 100%; `N=C(N)Nc1ccc2c(c1)CCc1nc(CCC(=O)N[C@@H](CC(=O)O)C(=O)O)ccc1OC2=O` [Example 48, N-(3-(9-Carbamimidamido-6-oxo-11,12-dihydro-6H-[2]benzoxocino[4,3-b]pyridin-2-yl)propanoyl)-L-aspartic acid trifluoroacetate]: 42%; `N=C(N)Nc1ccc2c(c1)OCCCOc1c(CCC(=O)N[C@@H](CC(=O)O)C(=O)O)cccc1OC2=O` [Example 43, N-(3-(3-Carbamimidamido-15-oxo-7,8-dihydro-6H, 15H-dibenzo[b,f][1,4,8]trioxacycloundecin-10-yl)propanoyl)aspartic acid trifluoroacetate]: 101%. On to `N=C(N)Nc1ccc2c(c1)CCCOc1c(cccc1C(=O)NCC(=O)O)OC2=O` [Example 89, N-((10-carbamimidamido-13-oxo-6,7,8,13-tetrahydro-dibenzo[b,f] [1,4]dioxecin-4-yl)carbonyl)glycine], for which the inhibition at 3.3 µM is 101%. `N=C(N)Nc1ccc2c(c1)CCCOc1c(cccc1C(=O)N(CC(=O)O)[C@@H](Cc1ccc(O)cc1)C(=O)O)OC2=O` [Example 92, N-((10-carbamimidamido-13-oxo-6,7,8,13-tetrahydro-dibenzo[b,f] [1,4]dioxecin-4-yl)carbonyl)-N-(carboxymethyl)-L-tyrosine]: the inhibition at 3.3 µM amounted to 101%. As for `CN(CC(=O)N[C@@H](CC(=O)O)C(=O)O)C(=O)c1cccc2c1OCCCc1cc(NC(=N)N)ccc1C(=O)O2` [Example 103, N-((10-carbamimidamido-13-oxo-6,7,8,13-tetrahydro-dibenzo[b,f] [1,4]dioxecin-4-yl)carbonyl)-N-methylglycyl-L-aspartic acid], the inhibition at 3.3 µM was 101%. As for `N=C(N)Nc1ccc2c(c1)CCCOc1c(cccc1C(=O)N(CCC(=O)O)[C@@H](CC(=O)O)C(=O)O)OC2=O` [Example 138, N-((10-carbamimidamido-13-oxo-6,7,8,13-tetrahydro-dibenzo[b,f] [1,4]dioxecin-4-yl)carbonyl)-N-(2-carboxyethyl)-L-aspartic acid], the inhibition at 3.3 µM was determined as 100%.

With `CN(C(=O)c1cccc2c1OCCCc1cc(NC(=N)N)ccc1C(=O)O2)[C@@H](CC(=O)O)C(=O)O` [Example 85, N-((10-carbamimidamido-13-oxo-6,7,8,13-tetrahydrodibenzo[b,f] [1,4]dioxecin-4-yl)carbonyl)-N-methyl-L-aspartic acid], the inhibition at 3.3 µM turned out to be 101%. Same read-out and setting: the same measure for `N#Cc1cc2c(c(C(=O)N[C@@H](CC(=O)O)C(=O)O)c1)OCCCc1cc(NC(=N)N)ccc1C(=O)O2` [Example 114, N-((10-Carbamimidamido-2-cyano-13-oxo-6,7,8,13-tetrahydrodibenzo[b,f][1,4]dioxecin-4-yl)carbonyl)-L-aspartic acid]: 99%; for `N=C(N)Nc1ccc2c(c1)CCCCc1cc3c(cc1OC2=O)OC[C@H]3CC(=O)N[C@@H](CC(=O)O)C(=O)O` [Example 39, N-(((10S)-3-carbamimidamido-15-oxo-5,7,8,10,11,15-hexahydro-6H-12, 14-dioxabenzo[5,6]cyclodeca[1,2-f]inden-10-yl)acetyl)-L-aspartic acid]: 98%; for `C[C@@H](C(=O)O)N(Cc1cccc(C(=O)O)c1)C(=O)c1cccc2c1OCCCc1cc(NC(=N)N)ccc1C(=O)O2` [Example 135, 3-((((10-Carbamimidamido-13-oxo-6,7,8,13-tetrahydrodibenzo[b,f][1,4]dioxecin-4-yl)carbonyl) ((1S)-1-carboxyethyl)amino)methyl)benzoic acid]: 100%. With `COc1ccc(C[C@H](NC(=O)c2c(CCC(=O)NC(CC(=O)O)CC(=O)O)ccc3c2OCCCc2cc(NC(=N)N)ccc2C(=O)O3)C(=O)O)cc1` [Example 132, 3-((3-(10-carbamimidamido-4-(((1S)-1-carboxy-2-(4-methoxyphenyl)ethyl)carbamoyl)-13-oxo-6,7,8,13-tetrahydro-dibenzo[b,f] [1,4]dioxecin-3-yl)propanoyl)amino) pentanedioic acid], the inhibition at 3.3 µM came out at 100%. Turning to `N=C(N)Nc1ccc2c(c1)CCCOc1c(ccc(CCC(=O)NC(CC(=O)O)CC(=O)O)c1C(=O)N[C@@H](Cc1ccc(O)cc1)C(=O)O)OC2=O` [Example 123, 3-((3-(10-carbamimidamido-4-(((1S)-1-carboxy-2-(4-hydroxyphenyl)ethyl)carbamoyl)-13-oxo-6,7,8,13-tetrahydro-dibenzo[b,f] [1,4]dioxecin-3-yl)propanoyl)amino) pentanedioic acid], the inhibition at 3.3 µM was 101%. The same measure, in the same setting: next, `N=C(N)Nc1ccc2c(c1)CCCOc1c(cccc1C(=O)N(CC(=O)O)[C@@H](Cc1ccccc1)C(=O)O)OC2=O` [Example 133, N-((10-carbamimidamido-13-oxo-6,7,8,13-tetrahydro-dibenzo[b,f] [1,4]dioxecin-4-yl)carbonyl)-N-(carboxymethyl)-L-phenylalanine]: 100%; `N=C(N)c1ccc2c(c1)CCc1cc(CCC(=O)N[C@@H](CC(=O)O)C(=O)O)ccc1C(=O)O2` [Example 60, N-(3-(2-carbamimidoyl-6-oxo-11,12-dihydro-6H-dibenzo[b,f]oxocin-9-yl)propanoyl)-L-aspartic acid]: 59%; `N=C(N)Nc1ccc2c(c1)CCCOc1c(cccc1C(=O)N(CC(=O)O)[C@@H](Cc1ccc(OCCN(CC(=O)O)CC(=O)O)cc1)C(=O)O)OC2=O` [Example 108, O-(2-(Bis(carboxymethyl)amino)ethyl)-N-((10-carbamimidamido-13-oxo-6,7,8,13-tetrahydrodibenzo[b,f][1,4]dioxecin-4-yl)carbonyl)-N-(carboxymethyl)-L-tyrosine]: 100%.

The inhibition is the relative decrease from the control value, in per cent.
